# Assay results reported in patent US20130252890A1, “6,7-DIHYDRO-5H-BENZO[7]ANNULENE DERIVATIVES, PROCESS FOR PREPARATION THEREOF, PHARMACEUTICAL PREPARATIONS COMPRISING THEM, AND THE USE THEREOF FOR PRODUCTION OF MEDICAMENTS” (BAYER INTELLECTUAL PROPERTY GMBH, priority 2010, published 2013).
# Target: T1, oestrogen receptor (ER) (Homo sapiens, UniProt P03372)
# T1 construct: These MVLN cells express, along with the functional oestrogen receptor (ER), a reporter construct; endogenous in cells; host or cells: MVLN cells (MCF7 derivative carrying a luciferase reporter construct)
# T1 sequence (P03372 1-595): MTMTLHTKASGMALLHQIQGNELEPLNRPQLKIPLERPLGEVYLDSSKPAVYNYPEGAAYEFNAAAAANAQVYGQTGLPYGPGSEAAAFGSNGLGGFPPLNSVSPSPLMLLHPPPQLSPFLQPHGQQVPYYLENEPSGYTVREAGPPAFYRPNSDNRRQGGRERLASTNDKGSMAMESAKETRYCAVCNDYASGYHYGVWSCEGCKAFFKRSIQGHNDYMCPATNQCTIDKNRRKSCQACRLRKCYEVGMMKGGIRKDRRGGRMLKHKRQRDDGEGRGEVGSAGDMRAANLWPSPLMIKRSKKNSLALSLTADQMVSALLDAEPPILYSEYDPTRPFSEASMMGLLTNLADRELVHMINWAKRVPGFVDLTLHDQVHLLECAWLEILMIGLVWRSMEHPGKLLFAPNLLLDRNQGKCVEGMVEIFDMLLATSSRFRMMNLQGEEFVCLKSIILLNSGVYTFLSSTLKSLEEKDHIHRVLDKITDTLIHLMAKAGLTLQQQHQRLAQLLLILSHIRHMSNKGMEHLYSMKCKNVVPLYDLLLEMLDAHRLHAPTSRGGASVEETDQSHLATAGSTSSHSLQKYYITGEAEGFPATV
# Assay: Anti-oestrogenic action in MVLN cells (inhibition of estradiol-induced luciferase)
# Assay type: cell-based
# Conditions: inhibition of estradiol-induced luciferase signal, value of Ex. 44 is a mean value, read-out: Antioestrogenic action in vitro: MVLN transactivation antagonism IC50
# Text: The anti-oestrogenic action of the claimed pharmacological compounds was investigated in so-called MVLN cells in vitro. MVLN cells are derivatives of the hormone-responsive MCF7 breast cancer cells known by a person skilled in the art. These MVLN cells express, along with the functional oestrogen receptor (ER), a reporter construct, which under ER-activation expresses luciferase. Determination of the activity of the induced luciferase permits a direct conclusion on the oestrogen properties of substances. To investigate the anti-oestrogenic properties of the pharmacological compounds, they were investigated in the presence of oestrogen for their potential for inhibiting the luciferase signal induced by estradiol. The claimed pharmacological test substances were investigated in MVLN cells for their anti-oestrogenic potential, as described (see Table 2).
row,IC50 [nM],Compound
1,48,"CN(CCCCCCC1=C(c2cc(F)cc(F)c2)CCCc2cc(O)ccc21)CCCS(=O)(=O)CCCC(F)(F)C(F)(F)F [Example 1, 8-(3,5-Difluorophenyl)-9-[6-(methyl{3-[(4,4,5,5,5-pentafluoropentyl)sulphonyl]propyl}amino)hexyl]-6,7-dihydro-5H-benzo[7]annulen-3-ol]"
2,8,"CN(CCCCCCC1=C(c2cc(F)cc(F)c2)CCCc2cc(O)ccc21)CCC[S+]([O-])CCC(F)(F)C(F)(F)F (stereo not drawn) [Example 2, 8-(3,5-Difluorophenyl)-9-[6-(methyl{3-[(3,3,4,4,4-pentafluorobutyl)sulphinyl]propyl}amino)hexyl]-6,7-dihydro-5H-benzo[7]annulen-3-ol]"
3,180,"CN(CCCCCCC1=C(c2cc(F)cc(F)c2)CCCc2cc(O)ccc21)CCCS(=O)(=O)CCC(F)(F)C(F)(F)F [Example 3, 8-(3,5-Difluorophenyl)-9-[6-(methyl{3-[(3,3,4,4,4-pentafluorobutyl)sulphonyl]propyl}amino)hexyl]-6,7-dihydro-5H-benzo[7]annulen-3-ol]"
4,6,"CN(CCCCCCC1=C(c2cc(F)cc(F)c2)CCCc2cc(O)ccc21)CCCC[S+]([O-])CCCC(F)(F)C(F)(F)F (stereo not drawn) [Example 4, 8-(3,5-Difluorophenyl)-9-[6-(methyl{4-[(4,4,5,5,5-pentafluoropentyl)sulphinyl]butyl}amino)hexyl]-6,7-dihydro-5H-benzo[7]annulen-3-ol]"
5,46,"CN(CCCCCCC1=C(c2cc(F)cc(F)c2)CCCc2cc(O)ccc21)CCC[S+]([O-])CCC(F)(F)F (stereo not drawn) [Example 5, 8-(3,5-Difluorophenyl)-9-[6-(methyl{3-[(3,3,3-trifluoropropyl)sulphinyl]propyl}amino)hexyl]-6,7-dihydro-5H-benzo[7]annulen-3-ol]"
6,181,"CN(CCCCCCC1=C(c2cc(F)cc(F)c2)CCCc2cc(O)ccc21)CCCS(=O)(=O)CCC(F)(F)F [Example 6, 8-(3,5-Difluorophenyl)-9-[6-(methyl{3-[(3,3,3-trifluoropropyl)sulphonyl]propyl}amino)hexyl]-6,7-dihydro-5H-benzo[7]annulen-3-ol]"
7,12,"CN(CCCCCCC1=C(c2cc(F)cc(F)c2)CCCc2cc(O)ccc21)CCC[S+]([O-])CCCC(F)(F)C(F)(F)F (stereo not drawn) [Example 8, 8-(3,5-Difluorophenyl)-9-[6-(methyl{3-[(4,4,5,5,5-pentafluoropentyl)sulphinyl]propyl}amino)hexyl]-6,7-dihydro-5H-benzo[7]annulen-3-ol]"
8,17,"CN(CCCCCCC1=C(c2cc(F)cc(F)c2)CCCc2cc(O)ccc21)CCCCS(=O)(=O)CCCC(F)(F)C(F)(F)F [Example 9, 8-(3,5-Difluorophenyl)-9-[6-(methyl{4-[(4,4,5,5,5-pentafluoropentyl)sulphonyl]butyl}amino)hexyl]-6,7-dihydro-5H-benzo[7]annulen-3-ol]"
9,38,"CC(C)(O)CN(CCCCCCC1=C(c2cc(F)cc(F)c2)CCCc2cc(O)ccc21)CCC[S+]([O-])CCC(F)(F)F (stereo not drawn) [Example 10, 8-(3,5-Difluorophenyl)-9-{6-[(2-hydroxy-2-methylpropyl){3-[(3,3,3-trifluoropropyl)sulphinyl]propyl}amino]hexyl}-6,7-dihydro-5H-benzo[7]annulen-3-ol]"
10,84,"CC(C)(O)CN(CCCCCCC1=C(c2cc(F)cc(F)c2)CCCc2cc(O)ccc21)CCCS(=O)(=O)CCC(F)(F)F [Example 11, 8-(3,5-Difluorophenyl)-9-{6-[(2-hydroxy-2-methylpropyl){3-[(3,3,3-trifluoropropyl)sulphonyl]propyl}amino]hexyl}-6,7-dihydro-5H-benzo[7]annulen-3-ol]"
11,15,"CC(C)(O)CN(CCCCCCC1=C(c2cc(F)cc(F)c2)CCCc2cc(O)ccc21)CCC[S+]([O-])CCCC(F)(F)C(F)(F)F (stereo not drawn) [Example 12, 8-(3,5-Difluorophenyl)-9-{6-[(2-hydroxy-2-methylpropyl){3-[(4,4,5,5,5-pentafluoropentyl)sulphinyl]propyl}amino]hexyl}-6,7-dihydro-5H-benzo[7]annulen-3-ol]"
12,20,"CC(C)(O)CN(CCCCCCC1=C(c2cc(F)cc(F)c2)CCCc2cc(O)ccc21)CCCS(=O)(=O)CCCC(F)(F)C(F)(F)F [Example 13, 8-(3,5-Difluorophenyl)-9-{6-[(2-hydroxy-2-methylpropyl){3-[(4,4,5,5,5-pentafluoropentyl)sulphonyl]propyl}amino]hexyl}-6,7-dihydro-5H-benzo[7]annulen-3-ol]"
13,168,"CCN(CCCCCCC1=C(c2cc(F)cc(F)c2)CCCc2cc(O)ccc21)CCCS(=O)(=O)CCC(F)(F)F [Example 14, 8-(3,5-Difluorophenyl)-9-[6-(ethyl{3-[(3,3,3-trifluoropropyl)sulphonyl]propyl}amino)hexyl]-6,7-dihydro-5H-benzo[7]annulen-3-ol]"
14,26,"COCCN(CCCCCCC1=C(c2cc(F)cc(F)c2)CCCc2cc(O)ccc21)CCCS(=O)(=O)CCCC(F)(F)C(F)(F)F [Example 15, 8-(3,5-Difluorophenyl)-9-{6-[(2-methoxyethyl){3-[(4,4,5,5,5-pentafluoropentyl)sulphonyl]propyl}amino]hexyl}-6,7-dihydro-5H-benzo[7]annulen-3-ol]"
15,27,"COCCCN(CCCCCCC1=C(c2cc(F)cc(F)c2)CCCc2cc(O)ccc21)CCCS(=O)(=O)CCCC(F)(F)C(F)(F)F [Example 16, 8-(3,5-Difluorophenyl)-9-{6-[(3-methoxypropyl){3-[(4,4,5,5,5-pentafluoropentyl)sulphonyl]propyl}amino]hexyl}-6,7-dihydro-5H-benzo[7]annulen-3-ol]"
16,46,"CN(CCCCCCC1=C(c2ccc(F)c(F)c2)CCCc2cc(O)ccc21)CCCS(=O)(=O)CCCC(F)(F)C(F)(F)F [Example 17, 8-(3,4-Difluorophenyl)-9-[6-(methyl{3-[(4,4,5,5,5-pentafluoropentyl)sulphonyl]propyl}amino)hexyl]-6,7-dihydro-5H-benzo[7]annulen-3-ol]"
17,34,"CN(CCCCCCC1=C(c2ccc(F)c(F)c2)CCCc2cc(O)ccc21)CCC[S+]([O-])CCC(F)(F)C(F)(F)F (stereo not drawn) [Example 18, 8-(3,4-Difluorophenyl)-9-[6-(methyl{3-[(3,3,4,4,4-pentafluorobutyl)sulphinyl]propyl}amino)hexyl]-6,7-dihydro-5H-benzo[7]annulen-3-ol]"
18,62,"CN(CCCCCCC1=C(c2ccc(F)c(F)c2)CCCc2cc(O)ccc21)CCCS(=O)(=O)CCC(F)(F)C(F)(F)F [Example 19, 8-(3,4-Difluorophenyl)-9-[6-(methyl{3-[(3,3,4,4,4-pentafluorobutyl)sulphonyl]propyl}amino)hexyl]-6,7-dihydro-5H-benzo[7]annulen-3-ol]"
19,9,"CN(CCCCCCC1=C(c2ccc(F)c(F)c2)CCCc2cc(O)ccc21)CCCC[S+]([O-])CCCC(F)(F)C(F)(F)F (stereo not drawn) [Example 20, 8-(3,4-Difluorophenyl)-9-[6-(methyl{4-[(4,4,5,5,5-pentafluoropentyl)sulphinyl]butyl}amino)hexyl]-6,7-dihydro-5H-benzo[7]annulen-3-ol]"
20,48,"CN(CCCCCCC1=C(c2ccc(F)c(F)c2)CCCc2cc(O)ccc21)CCC[S+]([O-])CCC(F)(F)F (stereo not drawn) [Example 21, 8-(3,4-Difluorophenyl)-9-[6-(methyl{3-[(3,3,3-trifluoropropyl)sulphinyl]propyl}amino)hexyl]-6,7-dihydro-5H-benzo[7]annulen-3-ol]"
21,222,"CN(CCCCCCC1=C(c2ccc(F)c(F)c2)CCCc2cc(O)ccc21)CCCS(=O)(=O)CCC(F)(F)F [Example 22, 8-(3,4-Difluorophenyl)-9-[6-(methyl{3-[(3,3,3-trifluoropropyl)sulphonyl]propyl}amino)hexyl]-6,7-dihydro-5H-benzo[7]annulen-3-ol]"
22,8,"CN(CCCCCCC1=C(c2ccc(F)c(F)c2)CCCc2cc(O)ccc21)CCC[S+]([O-])CCCC(F)(F)C(F)(F)F (stereo not drawn) [Example 24, 8-(3,4-Difluorophenyl)-9-[6-(methyl{3-[(4,4,5,5,5-pentafluoropentyl)sulphinyl]propyl}amino)hexyl]-6,7-dihydro-5H-benzo[7]annulen-3-ol]"
23,28,"CN(CCCCCCC1=C(c2ccc(F)c(F)c2)CCCc2cc(O)ccc21)CCCCS(=O)(=O)CCCC(F)(F)C(F)(F)F [Example 25, 8-(3,4-Difluorophenyl)-9-[6-(methyl{4-[(4,4,5,5,5-pentafluoropentyl)sulphonyl]butyl}amino)hexyl]-6,7-dihydro-5H-benzo[7]annulen-3-ol]"
24,28,"CC(C)(O)CN(CCCCCCC1=C(c2ccc(F)c(F)c2)CCCc2cc(O)ccc21)CCC[S+]([O-])CCC(F)(F)F (stereo not drawn) [Example 26, 8-(3,4-Difluorophenyl)-9-{6-[(2-hydroxy-2-methylpropyl){3-[(3,3,3-trifluoropropyl)sulphinyl]propyl}amino]hexyl}-6,7-dihydro-5H-benzo[7]annulen-3-ol]"
